# Results published in US12084420B2, “Indoline compounds for inhibiting KIF18A” (Volastra Therapeutics, Inc., priority 2021, dated 2024).
# Target: hKIF18A (1-374) (Homo sapiens (Human), UniProt Q8NI77)
# Assay: Inhibition of KIF18A microtubule-dependent ATPase activity (ADP-Glo)
# Details: not given
# hKIF18A (1-374), sequence (Q8NI77 whole entry, looked up): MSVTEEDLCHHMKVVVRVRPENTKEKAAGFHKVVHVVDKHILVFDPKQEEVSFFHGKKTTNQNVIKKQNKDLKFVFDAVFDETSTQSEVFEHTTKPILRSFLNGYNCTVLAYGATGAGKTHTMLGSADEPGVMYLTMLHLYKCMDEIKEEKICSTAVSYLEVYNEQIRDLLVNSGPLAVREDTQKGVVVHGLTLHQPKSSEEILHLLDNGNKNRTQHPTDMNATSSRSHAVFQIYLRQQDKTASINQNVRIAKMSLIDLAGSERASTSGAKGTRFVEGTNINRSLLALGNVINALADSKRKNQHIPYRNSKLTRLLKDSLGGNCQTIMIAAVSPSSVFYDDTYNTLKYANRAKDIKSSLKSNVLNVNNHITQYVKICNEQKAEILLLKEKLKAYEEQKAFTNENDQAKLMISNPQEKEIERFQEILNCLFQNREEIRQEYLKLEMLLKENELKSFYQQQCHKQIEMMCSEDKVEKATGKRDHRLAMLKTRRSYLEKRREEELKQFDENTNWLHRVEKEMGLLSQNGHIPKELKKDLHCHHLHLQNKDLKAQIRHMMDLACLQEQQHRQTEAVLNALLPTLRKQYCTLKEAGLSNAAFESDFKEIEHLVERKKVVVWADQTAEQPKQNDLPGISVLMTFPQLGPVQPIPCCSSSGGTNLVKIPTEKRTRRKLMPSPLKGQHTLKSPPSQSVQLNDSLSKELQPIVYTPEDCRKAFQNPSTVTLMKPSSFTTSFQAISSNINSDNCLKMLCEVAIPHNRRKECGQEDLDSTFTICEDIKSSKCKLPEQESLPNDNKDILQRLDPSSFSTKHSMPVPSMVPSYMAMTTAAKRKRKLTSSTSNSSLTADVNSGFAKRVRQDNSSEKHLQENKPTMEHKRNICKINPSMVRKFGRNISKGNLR
# hKIF18A (1-374), sequence (Q2XVP4 whole entry partner, looked up): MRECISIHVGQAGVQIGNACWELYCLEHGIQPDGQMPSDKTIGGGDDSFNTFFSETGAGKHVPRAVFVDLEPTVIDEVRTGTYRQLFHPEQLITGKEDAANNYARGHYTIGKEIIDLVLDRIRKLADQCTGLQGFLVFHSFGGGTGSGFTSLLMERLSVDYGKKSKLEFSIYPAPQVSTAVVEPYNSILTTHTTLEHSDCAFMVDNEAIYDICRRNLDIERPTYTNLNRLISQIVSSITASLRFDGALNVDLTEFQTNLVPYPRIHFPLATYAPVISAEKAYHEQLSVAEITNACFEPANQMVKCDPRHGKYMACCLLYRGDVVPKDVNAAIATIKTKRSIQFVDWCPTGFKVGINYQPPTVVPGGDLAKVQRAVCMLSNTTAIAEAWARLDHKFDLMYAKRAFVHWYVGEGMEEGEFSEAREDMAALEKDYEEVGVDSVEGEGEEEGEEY
# hKIF18A (1-374), sequence (P02554 whole entry partner, looked up): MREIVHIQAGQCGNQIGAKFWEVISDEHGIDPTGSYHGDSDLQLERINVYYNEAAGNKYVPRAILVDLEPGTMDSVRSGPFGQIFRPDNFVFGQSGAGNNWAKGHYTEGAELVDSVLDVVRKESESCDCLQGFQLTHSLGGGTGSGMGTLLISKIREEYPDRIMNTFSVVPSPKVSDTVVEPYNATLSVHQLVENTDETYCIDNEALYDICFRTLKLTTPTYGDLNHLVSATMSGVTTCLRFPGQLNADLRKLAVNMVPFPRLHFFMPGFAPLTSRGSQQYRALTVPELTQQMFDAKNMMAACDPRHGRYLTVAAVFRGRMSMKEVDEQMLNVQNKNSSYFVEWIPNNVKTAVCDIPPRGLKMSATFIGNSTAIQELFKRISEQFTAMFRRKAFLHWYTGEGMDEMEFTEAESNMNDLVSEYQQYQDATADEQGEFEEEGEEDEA
row,IC50,Compound
1,13 nM,"CS(=O)(=O)Nc1ccc2c(c1)C1(CCC3(CC3)CC1)CN2C(=O)c1cccc(S(=O)(=O)NC2CC(F)C2)c1 (stereo not shown) [Compound 204, N-(3-fluorocyclobutyl)-3-(5″- (methylsulfonamido)dispiro [cyclopropane-1,1′-cyclohexane-4′,3″- indoline]-1″-carbonyl)benzenesulfonamide]"

# Same assay, conditions: KIF18A microtubule-dependent ATPase activity, biochemical assay
row,Compound,IC50
1,"CN(C)S(=O)(=O)c1cccc(C(=O)N2CC3(CCCCC3)c3cc(NS(C)(=O)=O)ccc32)c1 [Compound 42, N,N-dimethyl-3-(5′-(methylsulfonamido)spiro[cyclohexane-1,3′-indoline]-1′-carbonyl)benzenesulfonamide]",1300 nM
2,"CC(C)(C)NS(=O)(=O)c1ccc(C(=O)N2CC3(CCC4(CC4)CC3)c3cc(NS(C)(=O)=O)ccc32)o1 [Compound 299, N-(tert-butyl)-5-(5″- (methylsulfonamido)dispiro[cyclopropane-1,1′-cyclohexane-4′,3″-indoline]-1″-carbonyl)furan-2-sulfonamide]",14 nM
3,"CS(=O)(=O)Nc1ccc2c(c1)C1(CCCCC1)CN2C(=O)c1cccc(S(=O)(=O)C2CCCC2)c1 [Compound 50, N-(1′-(3-(cyclopentylsulfonyl)benzoyl)spiro [cyclohexane-1,3′-indolin]-5′-yl)methanesulfonamide]",72 nM
4,"CS(=O)(=O)Nc1ccc2c(c1)C1(CCC3(CC3)CC1)CN2C(=O)c1cccc(S(=O)(=O)NC2C=CCCC2)c1 (stereo not shown) [Compound 196, N-(cyclohex-2-en-1-yl)-3-(5″- (methylsulfonamido)dispiro[cyclopropane-1,1′-cyclohexane-4′,3″-indoline]-1″-carbonyl)benzenesulfonamide]",10 nM
5,"Cn1cc(S(=O)(=O)NC(C)(C)C)cc1C(=O)N1CC2(CCCCC2)c2cc(NS(C)(=O)=O)ccc21 [Compound 145, N-(tert-butyl)-1-methyl-5-(5′-(methylsulfonamido)spiro[cyclohexane-1,3′-indoline]-1′-carbonyl)-1H-pyrrole-3-sulfonamide]",290 nM
6,"O=C(c1cccc(S(=O)(=O)N2CCC(F)(F)CC2)c1)N1CC2(CCCC2)c2c(F)cccc21 [Compound 1, (3-((4,4-difluoropiperidin-1-yl)sulfonyl)phenyl)(4′-fluorospiro[cyclopentane-1,3′-indolin]-1′-yl)methanone]",1600 nM
7,"CC(C)(C)NS(=O)(=O)c1ccc(F)c(C(=O)N2CC3(CCCCC3)c3cc(NS(C)(=O)=O)ccc32)c1 [Compound 97, N-(tert-butyl)-4-fluoro-3-(5′-(methylsulfonamido)spiro[cyclohexane-1,3′-indoline]-1′-carbonyl)benzenesulfonamide]",850 nM
8,"CC(C)N(C)S(=O)(=O)c1cccc(C(=O)N2CC3(CCCCC3)c3cc(NS(C)(=O)=O)ccc32)c1 [Compound 55, N-isopropyl-N-methyl-3-(5′-(methylsulfonamido)spiro[cyclohexane-1,3′-indoline]-1′-carbonyl)benzenesulfonamide]",140 nM
9,"CS(=O)(=O)Nc1ccc2c(c1)C1(CCCCC1)CN2C(=O)c1csc(S(=O)(=O)NC2CCC2)c1 [Compound 284, N-cyclobutyl-4-(5′-(methylsulfonamido)spiro[cyclohexane-1,3′-indoline]-1′-carbonyl)thiophene-2-sulfonamide]",26 nM
10,"CC(C)(C)[C@H](O)c1ccc(C(=O)N2CC3(CCC4(CC4)CC3)c3cc(NS(C)(=O)=O)ccc32)o1 (single isomer, unassigned) [Compound 373b]",170 nM
11,"CS(=O)(=O)Nc1ccc2c(c1)C1(CCCCC1)CN2C(=O)c1cccc(S(=O)(=O)N2CC3CC3C2)c1 (stereo not shown) [Compound 25, N-(1′-(3-((3-azabicyclo[3.1.0]hexan-3-yl)sulfonyl)benzoyl)spiro[cyclohexane-1,3′-indolin]-5′-yl)methanesulfonamide]",120 nM
12,"CC1CCN(S(=O)(=O)c2cccc(C(=O)N3CC4(CCCCC4)c4cc(NS(C)(=O)=O)ccc43)c2)C1 (stereo not shown) [Compound 71, N-(1′-(3-((3-methylpyrrolidin-1-yl)sulfonyl)benzoyl)spiro[cyclohexane-1,3′-indolin]-5′-yl)methanesulfonamide]",86 nM
13,"N-(1-hydroxy-2-methylpropan-2-yl)-3- (5″- (methylsulfonamido)dispiro[cyclopropane- 1,1′-cyclohexane-4′,3″-indoline]- 1″-carbonyl)benzenesulfonamide [Compound 194]",50 nM

# Further lines, results first:
row,IC50,Compound
1,30 nM,"C[C@@H](c1cccc(C(=O)N2CC3(CCC4(CC4)CC3)c3cc(NS(C)(=O)=O)ccc32)c1)N1CCC(F)(F)CC1 (single isomer, unassigned) [Compound 341a]"
2,310 nM,"CS(=O)(=O)Nc1ccc2c(c1)C1(CCC3(CC3)CC1)CN2C(=O)c1cccc(CN2CCCO2)c1 [Compound 346, N-(1″-(3-(isoxazolidin-2-ylmethyl)benzoyl)dispiro[cyclopropane-1,1′-cyclohexane-4′,3″-indolin]-5″- yl)methanesulfonamide]"
3,12 nM,CS(=O)(=O)Nc1ccc2c(c1)C1(CCC3(CC3)CC1)CN2C(=O)c1cccc([C@@H](O)C2CC(F)(F)C2)c1 [Compound 351b]
4,53 nM,"CS(=O)(=O)Nc1ccc2c(c1)C1(CCC3(CC3)CC1)CN2C(=O)c1cccc(S(=O)(=O)NC2(CO)CC2)c1 [Compound 202, N-(1-(hydroxymethyl)cyclopropyl)-3-(5″- (methylsulfonamido)dispiro[cyclopropane-1,1′-cyclohexane-4′,3″-indoline]-1″-carbonyl)benzenesulfonamide]"
5,12 nM,"CS(=O)(=O)Nc1ccc2c(c1)C1(CCC3(CC3)CC1)CN2C(=O)c1cccc(S(=O)(=O)NC2CC2)c1 [Compound 212, N-cyclopropyl-3-(5″- (methylsulfonamido)dispiro[cyclopropane-1,1′-cyclohexane-4′,3″-indoline]-1″-carbonyl)benzenesulfonamide]"
6,24 nM,"CS(=O)(=O)Nc1ccc2c(c1)C1(CCC3(CC3)CC1)CN2C(=O)c1cccc(C(C#N)C2CCCC2)c1 (stereo not shown) [Compound 339, N-(1″-(3-(cyano(cyclopentyl)methyl)benzoyl)dispiro[cyclopropane-1,1′-cyclohexane-4′,3″-indolin]-5″- yl)methanesulfonamide]"
7,23 nM,"CC1(NS(=O)(=O)c2cccc(C(=O)N3CC4(CCC5(CC5)CC4)c4cc(NS(C)(=O)=O)ccc43)c2)CC(F)(F)C1 [Compound 224, N-(3,3-difluoro-1-methylcyclobutyl)-3-(5″- (methylsulfonamido)dispiro[cyclopropane-1,1′-cyclohexane-4′,3″-indoline]-1″-carbonyl)benzenesulfonamide]"
8,7.5 nM,"CS(=O)(=O)Nc1ccc2c(c1)C1(CCC3(CC3)CC1)CN2C(=O)c1cccc(S(=O)(=O)NC2CC23CC3)c1 (stereo not shown) [Compound 225, 3-(5″-(methylsulfonamido)dispiro [cyclopropane-1,1′-cyclohexane-4′,3″- indoline]-1″-carbonyl)-N-(spiro[2.2]pentan-1-yl)benzenesulfonamide]"
9,19 nM,"COc1ccc(C(=O)N2CC3(CCC4(CC4)CC3)c3cc(NS(C)(=O)=O)ccc32)cc1S(=O)(=O)N1CC(F)(F)C1 [Compound 302, N-(1″-(3-((3,3-difluoroazetidin-1-yl)sulfonyl)-4-methoxybenzoyl)dispiro[cyclopropane-1,1′-cyclohexane-4′,3″-indolin]-5″- yl)methanesulfonamide]"
10,33 nM,"CS(=O)(=O)Nc1ccc2c(c1)C1(CCC3(CC3)CC1)CN2C(=O)c1cccc(C(F)(F)C2CCCC2)c1 [Compound 306, N-(1″-(3-(cyclopentyldifluoromethyl)benzoyl)dispiro[cyclopropane-1,1′-cyclohexane-4′,3″-indolin]-5″- yl)methanesulfonamide]"
11,22 nM,"C=CCC1CC1NS(=O)(=O)c1cccc(C(=O)N2CC3(CCC4(CC4)CC3)c3cc(NS(C)(=O)=O)ccc32)c1 (stereo not shown) [Compound 235, N-(2-allylcyclopropyl)-3-(5″- (methylsulfonamido)dispiro[cyclopropane-1,1′-cyclohexane-4′,3″-indoline]-1″-carbonyl)benzenesulfonamide]"
12,34 nM,"CC1(C)CCN1S(=O)(=O)c1cccc(C(=O)N2CC3(CCC4(CC4)CC3)c3cc(NS(C)(=O)=O)ccc32)c1 [Compound 245, N-(1″-(3-((2,2-dimethylazetidin-1-yl)sulfonyl)benzoyl)dispiro[cyclopropane-1,1′-cyclohexane-4′,3″-indolin]-5″- yl)methanesulfonamide]"
13,21 nM,"CS(=O)(=O)Nc1ccc2c(c1)C1(CCC3(CC3)CC1)CN2C(=O)c1ccnc([C@@H](O)C2CCCC2)c1 (single isomer, unassigned) [Compound 316a]"
14,26 nM,"CCC(CC)NS(=O)(=O)c1cccc(C(=O)N2CC3(CCC4(CC4)CC3)c3cc(NS(C)(=O)=O)ccc32)c1 [Compound 198, 3-(5″- (methylsulfonamido)dispiro[cyclopropane-1,1′-cyclohexane-4′,3″-indoline]-1″-carbonyl)-N-(pentan-3-yl)benzenesulfonamide]"
15,14 nM,"O=C(c1cccc(S(=O)(=O)NC2CC(F)(F)C2)c1)N1CC2(CCC3(CC3)CC2)c2cc(NS(=O)(=O)CCO)ccc21 [Compound 230, N-(3,3-difluorocyclobutyl)-3-(5″-((2-hydroxyethyl)sulfonamido)dispiro [cyclopropane-1,1′-cyclohexane-4′,3″- indoline]-1″- carbonyl)benzenesulfonamide]"
16,53 nM,"CS(=O)(=O)Nc1ccc2c(c1)C1(CCC3(CC3)CC1)CN2C(=O)c1cccc(C(O)CN2CCC(F)(F)CC2)c1 (stereo not shown) [Compound 315, N-(1″-(3-(2-(4,4-difluoropiperidin-1-yl)-1-hydroxyethyl)benzoyl)dispiro[cyclopropane-1,1′-cyclohexane-4′,3″-indolin]-5″-yl)methanesulfonamide]"
17,56 nM,"CS(=O)(=O)Nc1ccc2c(c1)C1(CCC3(CC3)CC1)CN2C(=O)c1cccc(S(=O)(=O)NC2COC2)c1 [Compound 174, 3-(5″- (methylsulfonamido)dispiro[cyclopropane-1,1′-cyclohexane-4′,3″-indoline]-1″-carbonyl)-N-(oxetan-3-yl)benzenesulfonamide]"
